Here are results for 13 compounds from patent US20100029669A1, “3-(SUBSTITUTED ETHYL)-RIFAMYCIN DERIVATIVES USEFUL AS ANTIMICROBIAL AGENTS” (priority 2008, published 2010).

The structures appear in SMILES notation. In brackets after ≈: the same amount, converted by molar mass.

The test system of experiment [1] is Methicillin-resistant Staphylococcus aureus OC 2878. Description: MIC, microdilution broth method (NCCLS), strain D. The conditions noted are these: read-out: MIC D Strain.
Description: (§1) The in vitro antimicrobial activity of representative compounds of the present invention was determined by the microdilution broth method following the test method from the National Committee for Clinical Laboratory Standards (NCCLS).
(§2) In this method two-fold serial dilutions of drug in cation adjusted Mueller-Hinton broth were added to wells in microdilution trays. The test organisms were prepared by adjusting the turbidity of actively growing broth cultures so that the final concentration of test organism after it is added to the wells was approximately 5×10^4 CFU/well. Following inoculation of the microdilution trays, the trays were incubated at 35° C. for 16-20 hours and then read. The amount of growth in the wells containing the test compound was compared with the amount of growth in the growth-control wells (no test compound) used in each tray.
The test system of experiment [2] is Staphylococcus aureus OC4172. Description: MIC, microdilution broth method (NCCLS), strain C. The format is cell-based. The note with it: cation adjusted Mueller-Hinton broth, 35° C., 16-20 hours.
Experiment [3] deals with Methicillin-resistant Staphylococcus aureus OC 3726 COL. Description: MIC, microdilution broth method (NCCLS), strain B. The note with it: read-out: MIC B Strain.
Description: as §1, §2
Experiment [4] has as its system Enterococcus faecium OC 3312 vancomycin resistant. The experiment in a line: MIC, microdilution broth method (NCCLS), strain A. The conditions noted are these: read-out: MIC A Strain.
Description: as §1, §2

With `CO[C@H]1/C=C/O[C@@]2(C)Oc3c(C)c(O)c4c(O)c(c([C@H](O)C[N+](=O)[O-])c(O)c4c3C2=O)NC(=O)/C(C)=C\C=C\[C@H](C)[C@H](O)[C@@H](C)[C@@H](O)[C@@H](C)[C@H](OC(C)=O)[C@@H]1C` (single isomer, unassigned) [Compound 5], the MIC in experiment [1], in experiment [2], in experiment [3] and in experiment [4] was 8 µg/mL (≈ 10.2 µM) throughout.
In the case of `CO[C@H]1/C=C/O[C@@]2(C)Oc3c(C)c(O)c4c(c3C2=O)C(=O)C(CC[N+](=O)[O-])=C(NC(=O)/C(C)=C\C=C\[C@H](C)[C@H](O)[C@@H](C)[C@@H](O)[C@@H](C)[C@H](OC(C)=O)[C@@H]1C)C4=O` [Compound 1], the MIC in experiment [1] was ≤ 0.03 µg/mL; in experiment [2], ≤ 0.03 µg/mL; in experiment [3], ≤ 0.03 µg/mL; in experiment [4], 0.12 µg/mL (≈ 0.156 µM).
In the case of `CO[C@H]1/C=C/O[C@@]2(C)Oc3c(C)c(O)c4c(O)c(c(CC[N+](=O)[O-])c(O)c4c3C2=O)NC(=O)/C(C)=C\C=C\[C@H](C)[C@H](O)[C@@H](C)[C@@H](O)[C@@H](C)[C@H](OC(C)=O)[C@@H]1C` [Compound 2], the MIC is ≤ 0.03 µg/mL in experiment [1], ≤ 0.03 µg/mL in experiment [2], ≤ 0.03 µg/mL in experiment [3] and 1 µg/mL (≈ 1.3 µM) in experiment [4].
Consider `CO[C@H]1/C=C/O[C@@]2(C)Oc3c(C)c(O)c4c(O)c(c(C(C[N+](=O)[O-])C[N+](=O)[O-])c(O)c4c3C2=O)NC(=O)/C(C)=C\C=C\[C@H](C)[C@H](O)[C@@H](C)[C@@H](O)[C@@H](C)[C@H](OC(C)=O)[C@@H]1C` [Compound 3], for which the MIC in experiment [1] was determined as 0.25 µg/mL (≈ 0.301 µM); in experiment [2] it was 0.25 µg/mL (≈ 0.301 µM); in experiment [3] it was 0.5 µg/mL (≈ 0.603 µM); in experiment [4], 4 µg/mL (≈ 4.82 µM).
`CO[C@H]1/C=C/O[C@@]2(C)Oc3c(C)c(O)c4c(c3C2=O)C(=O)C(C(C[N+](=O)[O-])C[N+](=O)[O-])=C(NC(=O)/C(C)=C\C=C\[C@H](C)[C@H](O)[C@@H](C)[C@@H](O)[C@@H](C)[C@H](OC(C)=O)[C@@H]1C)C4=O` [Compound 4]: the MIC was found to be 0.5 µg/mL (≈ 0.604 µM) in experiment [1], 0.5 µg/mL (≈ 0.604 µM) in experiment [2], 1 µg/mL (≈ 1.21 µM) in experiment [3] and 2 µg/mL (≈ 2.42 µM) in experiment [4].
In the case of `CO[C@H]1/C=C/O[C@@]2(C)Oc3c(C)c(O)c4c(O)c(c(C(CN)CN)c(O)c4c3C2=O)NC(=O)/C(C)=C\C=C\[C@H](C)[C@H](O)[C@@H](C)[C@@H](O)[C@@H](C)[C@H](OC(C)=O)[C@@H]1C` [Compound 8], the MIC in experiment [1] was 1 µg/mL (≈ 1.3 µM); in experiment [2], 0.25 µg/mL (≈ 0.325 µM); in experiment [3], 0.5 µg/mL (≈ 0.649 µM); in experiment [4], 1 µg/mL (≈ 1.3 µM).
On to `CO[C@H]1/C=C/O[C@@]2(C)Oc3c(C)c(O)c4c(O)c(c(CCNCc5ccccc5)c(O)c4c3C2=O)NC(=O)/C(C)=C\C=C\[C@H](C)[C@H](O)[C@@H](C)[C@@H](O)[C@@H](C)[C@H](OC(C)=O)[C@@H]1C` [Compound 9], for which the MIC in experiment [1] was ≤ 0.03 µg/mL; in experiment [2], ≤ 0.03 µg/mL; in experiment [3], ≤ 0.03 µg/mL; in experiment [4], 0.12 µg/mL (≈ 0.144 µM).
Regarding `CO[C@H]1/C=C/O[C@@]2(C)Oc3c(C)c(O)c4c(O)c(c(CCN(C)C)c(O)c4c3C2=O)NC(=O)/C(C)=C\C=C\[C@H](C)[C@H](O)[C@@H](C)[C@@H](O)[C@@H](C)[C@H](OC(C)=O)[C@@H]1C` [Compound 10], the MIC in experiment [1] is 0.06 µg/mL (≈ 0.078 µM); in experiment [2], ≤ 0.03 µg/mL; in experiment [3], ≤ 0.03 µg/mL; in experiment [4], 0.25 µg/mL (≈ 0.325 µM).
As for `CO[C@H]1/C=C/O[C@@]2(C)Oc3c(C)c(O)c4c(O)c(c(CCN5CCCCC5)c(O)c4c3C2=O)NC(=O)/C(C)=C\C=C\[C@H](C)[C@H](O)[C@@H](C)[C@@H](O)[C@@H](C)[C@H](OC(C)=O)[C@@H]1C` [Compound 11], the MIC was 0.06 µg/mL (≈ 0.0742 µM) in experiment [1], ≤ 0.03 µg/mL in experiment [2], 0.06 µg/mL (≈ 0.0742 µM) in experiment [3] and 0.25 µg/mL (≈ 0.309 µM) in experiment [4].
Turning to `CO[C@H]1/C=C/O[C@@]2(C)Oc3c(C)c(O)c4c(O)c(c(CCNCc5ccc(N6CCN(C)CC6)cc5)c(O)c4c3C2=O)NC(=O)/C(C)=C\C=C\[C@H](C)[C@H](O)[C@@H](C)[C@@H](O)[C@@H](C)[C@H](OC(C)=O)[C@@H]1C` [Compound 12], the MIC in experiment [1] is ≤ 0.03 µg/mL; in experiment [2], ≤ 0.03 µg/mL; in experiment [3], ≤ 0.03 µg/mL; in experiment [4], 0.5 µg/mL (≈ 0.538 µM).
With `CO[C@H]1/C=C/O[C@@]2(C)Oc3c(C)c(O)c4c(O)c(c(CCNCc5ccc(-n6cccn6)cc5)c(O)c4c3C2=O)NC(=O)/C(C)=C\C=C\[C@H](C)[C@H](O)[C@@H](C)[C@@H](O)[C@@H](C)[C@H](OC(C)=O)[C@@H]1C` [Compound 13], the MIC in experiment [1] is 0.12 µg/mL (≈ 0.134 µM); in experiment [2], 0.12 µg/mL (≈ 0.134 µM); in experiment [3], 0.12 µg/mL (≈ 0.134 µM); in experiment [4] it was 0.5 µg/mL (≈ 0.557 µM).
`CO[C@H]1/C=C/O[C@@]2(C)Oc3c(C)c(O)c4c(O)c(c(CCNCc5ccc(-c6ncccn6)cc5)c(O)c4c3C2=O)NC(=O)/C(C)=C\C=C\[C@H](C)[C@H](O)[C@@H](C)[C@@H](O)[C@@H](C)[C@H](OC(C)=O)[C@@H]1C` [Compound 14]: the MIC in experiment [1] worked out at 0.5 µg/mL (≈ 0.55 µM); in experiment [2], 0.5 µg/mL (≈ 0.55 µM); in experiment [3], 1 µg/mL (≈ 1.1 µM); in experiment [4] it was 1 µg/mL (≈ 1.1 µM).
Regarding `CO[C@H]1/C=C/O[C@@]2(C)Oc3c(C)c(O)c4c(O)c(c(CCNCc5ccc(-c6cccnn6)cc5)c(O)c4c3C2=O)NC(=O)/C(C)=C\C=C\[C@H](C)[C@H](O)[C@@H](C)[C@@H](O)[C@@H](C)[C@H](OC(C)=O)[C@@H]1C` [Compound 15], the MIC is 0.25 µg/mL (≈ 0.275 µM) in experiment [1], 0.25 µg/mL (≈ 0.275 µM) in experiment [2], 0.5 µg/mL (≈ 0.55 µM) in experiment [3] and 1 µg/mL (≈ 1.1 µM) in experiment [4].
